# pIC50: −log10 of the molar value.
# Key:
# [1] = test system: Aspergillus flavus; test: Synergistic antifungal activity against Aspergillus flavus ATCC 16870 assessed as polyoxin B MIC incubated for 24 hrs by checkerboard broth microdilution method; assay type: functional
# [2] = test system: Aspergillus flavus; test: Synergistic antifungal activity against Aspergillus flavus ATCC 16870 assessed as fluconazole MIC incubated for 24 hrs in by checkerboard broth microdilution method; assay type: functional
# [3] = test system: Cryptococcus neoformans; test: Synergistic antifungal activity against Cryptococcus neoformans ATCC 32719 assessed as fluconazole MIC incubated for 24 hrs in by checkerboard broth microdilution method; assay type: functional
# [4] = test system: Cryptococcus neoformans; test: Antifungal activity against Fluconazole-resistant Cryptococcus neoformans ATCC 32719R assessed as fungal growth inhibition; assay type: functional
# [5] = test system: Aspergillus flavus; test: Antifungal activity against Fluconazole-resistant Aspergillus flavus ATCC 16870R assessed as fungal growth inhibition; assay type: functional
# [6] = test system: Candida albicans; test: Antifungal activity against Candida albicans ATCC 76615 assessed as fungal growth inhibition incubated for 24 hrs by two-fold serial dilution method; assay type: functional
# [7] = test system: Aspergillus fumigatus; test: Synergistic antifungal activity against Aspergillus fumigatus GIMCC 3.19 assessed as fluconazole MIC incubated for 24 hrs in by checkerboard broth microdilution method; assay type: functional
# [8] = test system: Cryptococcus neoformans; test: Antifungal activity against Cryptococcus neoformans ATCC 32719 assessed as fungal growth inhibition incubated for 24 hrs by two-fold serial dilution method; assay type: functional
# [9] = test system: Cryptococcus neoformans; test: Synergistic antifungal activity against Cryptococcus neoformans ATCC 32719 assessed as polyoxin B MIC incubated for 24 hrs in by checkerboard broth microdilution method; assay type: functional
# [10] = test system: Aspergillus flavus; test: Antifungal activity against Aspergillus flavus ATCC 16870 assessed as inhibition of cell wall synthesis incubated for 24 hrs in absence of sorbitol; assay type: functional
# [11] = test system: Candida tropicalis; test: Inhibition of Candida tropicalis ATCC 750 chitin synthase using […] as substrate at 300 ug/ml incubated for 1 hr by absorbance based assay relative to control; conditions: dose 300.0 µg/ml
# [12] = test system: Aspergillus flavus; test: Additive antifungal activity against Aspergillus flavus ATCC 16870 assessed as fractional inhibitory concentration index incubated for 24 hrs in presence of fluconazole by checkerboard broth microdilution method; assay type: functional
# [13] = test system: Candida albicans; test: Antifungal activity against Fluconazole-resistant Candida albicans ATCC 76615R assessed as fungal growth inhibition; assay type: functional
# [14] = test system: Aspergillus fumigatus; test: Antifungal activity against Aspergillus fumigatus GIMCC 3.19 assessed as inhibition of cell wall synthesis incubated for 24 hrs in presence of sorbitol; assay type: functional
# [15] = test system: Aspergillus fumigatus; test: Antifungal activity against Aspergillus fumigatus GIMCC 3.19 assessed as fungal growth inhibition incubated for 24 hrs by two-fold serial dilution method; assay type: functional
# [16] = test system: Aspergillus fumigatus; test: Antifungal activity against Aspergillus fumigatus GIMCC 3.19 assessed as inhibition of cell wall synthesis incubated for 24 hrs in absence of sorbitol; assay type: functional
# [17] = test system: Candida albicans; test: Synergistic antifungal activity against Candida albicans ATCC 76615 assessed as polyoxin B MIC incubated for 24 hrs by checkerboard broth microdilution method; assay type: functional
# [18] = test system: Aspergillus fumigatus; test: Additive antifungal activity against Aspergillus fumigatus GIMCC 3.19 assessed as fractional inhibitory concentration index incubated for 24 hrs in presence of polyoxin B by checkerboard broth microdilution method; assay type: functional
# [19] = test system: Candida albicans; test: Antifungal activity against Candida albicans ATCC 76615 assessed as inhibition of cell wall synthesis incubated for 24 hrs in presence of sorbitol; assay type: functional
# [20] = test system: Candida albicans; test: Antifungal activity against Micafungin-resistant Candida albicans ATCC 76615R assessed as fungal growth inhibition; assay type: functional
# [21] = Inhibition of Candida tropicalis ATCC 750 chitin synthase using UDP-GlcNAc as substrate incubated for 1 hr by absorbance based assay
# [22] = test system: Aspergillus fumigatus; test: Antifungal activity against Fluconazole-resistant Aspergillus fumigatus GIMCC 3.19R assessed as fungal growth inhibition; assay type: functional
# [23] = test system: Candida albicans; test: Additive antifungal activity against Candida albicans ATCC 76615 assessed as fractional inhibitory concentration index incubated for 24 hrs in presence of polyoxin B by checkerboard broth microdilution method; assay type: functional
# [24] = test system: Candida albicans; test: Additive antifungal activity against Candida albicans ATCC 76615 assessed as fractional inhibitory concentration index incubated for 24 hrs in presence of fluconazole by checkerboard broth microdilution method; assay type: functional
# [25] = test system: Aspergillus fumigatus; test: Synergistic antifungal activity against Aspergillus fumigatus GIMCC 3.19 assessed as polyoxin B MIC incubated for 24 hrs by checkerboard broth microdilution method; assay type: functional
# [26] = test system: Aspergillus fumigatus; test: Synergistic antifungal activity against Aspergillus fumigatus GIMCC 3.19 assessed as fractional inhibitory concentration index incubated for 24 hrs in presence of fluconazole by checkerboard broth microdilution method; assay type: functional
# [27] = test system: Aspergillus flavus; test: Additive antifungal activity against Aspergillus flavus ATCC 16870 assessed as fractional inhibitory concentration index incubated for 24 hrs in presence of polyoxin B by checkerboard broth microdilution method; assay type: functional
# [28] = test system: Cryptococcus neoformans; test: Additive antifungal activity against Cryptococcus neoformans ATCC 32719 assessed as fractional inhibitory concentration index incubated for 24 hrs in presence of fluconazole by checkerboard broth microdilution method; assay type: functional
# [29] = test system: Cryptococcus neoformans; test: Antifungal activity against Cryptococcus neoformans ATCC 32719 assessed as inhibition of cell wall synthesis incubated for 24 hrs in absence of sorbitol; assay type: functional
# [30] = test system: Candida albicans; test: Synergistic antifungal activity against Candida albicans ATCC 76615 assessed as fluconazole MIC incubated for 24 hrs in by checkerboard broth microdilution method; assay type: functional
# [31] = test system: Cryptococcus neoformans; test: Additive antifungal activity against Cryptococcus neoformans ATCC 32719 assessed as fractional inhibitory concentration index incubated for 24 hrs in presence of polyoxin B by checkerboard broth microdilution method; assay type: functional
# [32] = test system: Candida albicans; test: Antifungal activity against Candida albicans ATCC 76615 assessed as inhibition of cell wall synthesis incubated for 24 hrs in absence of sorbitol; assay type: functional
# [33] = test system: Aspergillus flavus; test: Antifungal activity against Aspergillus flavus ATCC 16870 assessed as fungal growth inhibition incubated for 24 hrs by two-fold serial dilution method; assay type: functional
# [34] = test system: Cryptococcus neoformans; test: Antifungal activity against Cryptococcus neoformans ATCC 32719 assessed as inhibition of cell wall synthesis incubated for 24 hrs in presence of sorbitol; assay type: functional
# [35] = test system: Aspergillus flavus; test: Antifungal activity against Aspergillus flavus ATCC 16870 assessed as inhibition of cell wall synthesis incubated for 24 hrs in presence of sorbitol; assay type: functional
# [36] = test system: Cryptococcus neoformans; test: Synergistic antifungal activity against Cryptococcus neoformans ATCC 32719 assessed as fractional inhibitory concentration index incubated for 24 hrs in presence of polyoxin B by checkerboard broth microdilution method; assay type: functional
# [37] = test system: Aspergillus fumigatus; test: Additive antifungal activity against Aspergillus fumigatus GIMCC 3.19 assessed as fractional inhibitory concentration index incubated for 24 hrs in presence of fluconazole by checkerboard broth microdilution method; assay type: functional
# [38] = test system: Aspergillus fumigatus; test: Synergistic antifungal activity against Aspergillus fumigatus GIMCC 3.19 assessed as fractional inhibitory concentration index incubated for 24 hrs in presence of polyoxin B by checkerboard broth microdilution method; assay type: functional
# [39] = test system: Cryptococcus neoformans; test: Synergistic antifungal activity against Cryptococcus neoformans ATCC 32719 assessed as fractional inhibitory concentration index incubated for 24 hrs in presence of fluconazole by checkerboard broth microdilution method; assay type: functional
smiles,measurement,setting,value
O=C(/C=C/C(=O)Nc1ccc(Cl)cc1Cl)Nc1ccc2c(c1)C(=O)NC1(CCSC1)N2 (stereo not given),MIC,[1],16 µg/mL
same,MIC,[2],4 µg/mL
same,MIC,[3],2 µg/mL
same,MIC,[4],32 µg/mL
same,MIC,[5],32 µg/mL
same,MIC,[6],8 µg/mL
same,MIC,[7],2 µg/mL
same,MIC,[8],8 µg/mL
same,MIC,[9],16 µg/mL
same,MIC,[10],32 µg/mL
same,inhibition,[11],73.9%
same,fractional inhibitory concentration index (FICI),[12],1.25
same,MIC,[13],32 µg/mL
same,MIC,[14],128 µg/mL
same,MIC,[15],8 µg/mL
same,MIC,[16],16 µg/mL
same,MIC,[17],2 µg/mL
same,fractional inhibitory concentration index (FICI),[18],1.5
same,MIC,[19],256 µg/mL
same,MIC,[20],16 µg/mL
same,pIC50,[21],3.86
same,MIC,[22],16 µg/mL
same,fractional inhibitory concentration index (FICI),[23],1.25
same,fractional inhibitory concentration index (FICI),[24],1.5
same,MIC,[25],8 µg/mL
same,fractional inhibitory concentration index (FICI),[26],0.75
same,fractional inhibitory concentration index (FICI),[27],2
same,fractional inhibitory concentration index (FICI),[28],1.5
same,MIC,[29],16 µg/mL
same,MIC,[30],2 µg/mL
same,fractional inhibitory concentration index (FICI),[31],1.5
same,MIC,[32],16 µg/mL
same,MIC,[33],8 µg/mL
same,MIC,[34],128 µg/mL
same,MIC,[35],256 µg/mL
O=C(/C=C/C(=O)Nc1ccc2c(c1)C(=O)NC1(CCSC1)N2)Nc1ccc(Br)cc1 (stereo not given),MIC,[1],2 µg/mL
same,MIC,[2],4 µg/mL
same,MIC,[3],2 µg/mL
same,fractional inhibitory concentration index (FICI),[36],0.75
same,MIC,[4],8 µg/mL
same,MIC,[5],32 µg/mL
same,MIC,[6],16 µg/mL
same,MIC,[7],1 µg/mL
same,MIC,[8],2 µg/mL
same,MIC,[9],4 µg/mL
same,MIC,[10],32 µg/mL
same,inhibition,[11],75.3%
same,fractional inhibitory concentration index (FICI),[12],1.5
same,MIC,[13],32 µg/mL
same,MIC,[14],256 µg/mL
same,MIC,[15],8 µg/mL
same,MIC,[16],16 µg/mL
same,MIC,[17],2 µg/mL
same,MIC,[19],128 µg/mL
same,MIC,[20],16 µg/mL
same,pIC50,[21],3.93
same,fractional inhibitory concentration index (FICI),[37],1.125
same,MIC,[22],16 µg/mL
same,fractional inhibitory concentration index (FICI),[23],1.25
same,fractional inhibitory concentration index (FICI),[24],1.5
same,MIC,[25],8 µg/mL
same,fractional inhibitory concentration index (FICI),[27],1.125
same,MIC,[29],8 µg/mL
same,MIC,[30],1 µg/mL
same,fractional inhibitory concentration index (FICI),[38],1
same,MIC,[32],16 µg/mL
same,MIC,[33],16 µg/mL
same,MIC,[34],128 µg/mL
same,MIC,[35],256 µg/mL
same,fractional inhibitory concentration index (FICI),[39],0.75
